{"source": "patent US12661347B2", "about": "(Dr. Falk Pharma GmbH, priority 2020, dated 2026)", "key": {"TG2": {"target": "T1, TG2 (Homo sapiens, UniProt P21980)", "T1 sequence (P21980 1-687)": "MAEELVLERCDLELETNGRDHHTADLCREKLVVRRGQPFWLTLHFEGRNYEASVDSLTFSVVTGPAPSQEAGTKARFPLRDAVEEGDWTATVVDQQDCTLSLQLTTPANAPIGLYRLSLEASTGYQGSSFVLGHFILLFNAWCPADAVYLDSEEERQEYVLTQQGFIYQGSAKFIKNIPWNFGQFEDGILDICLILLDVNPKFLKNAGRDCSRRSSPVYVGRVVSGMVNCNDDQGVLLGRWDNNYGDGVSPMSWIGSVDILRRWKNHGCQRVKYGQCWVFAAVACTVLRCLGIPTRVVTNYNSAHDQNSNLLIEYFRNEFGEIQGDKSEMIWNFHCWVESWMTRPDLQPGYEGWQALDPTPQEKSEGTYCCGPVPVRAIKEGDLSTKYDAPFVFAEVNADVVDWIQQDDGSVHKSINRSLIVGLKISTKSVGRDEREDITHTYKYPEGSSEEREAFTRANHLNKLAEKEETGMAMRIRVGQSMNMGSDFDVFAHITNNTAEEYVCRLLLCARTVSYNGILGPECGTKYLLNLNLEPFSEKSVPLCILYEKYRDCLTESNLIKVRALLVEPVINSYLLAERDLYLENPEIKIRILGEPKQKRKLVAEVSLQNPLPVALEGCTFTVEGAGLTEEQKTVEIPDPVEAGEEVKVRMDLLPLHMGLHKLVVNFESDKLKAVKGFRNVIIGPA", "test": "Correlation of human pharmacokinetic data with in vitro TG2 inhibition (TG2-mediated deamidation of gluten)", "text": "For the estimation of the therapeutic effective human dose, the drug concentration determined in vivo is compared with the drug concentrations resulting in an inhibition of the enzyme activity of TG2 in vitro (FIG. 2). Thereby, the TG2-mediated deamidation of gluten serves as a marker reaction. […] The 90% inhibition at IC90 can be regarded as maximal pharmacodynamic effect."}, "[1]": {"test": "Pharmacokinetic after oral administration of the systemic formulation in healthy volunteers (plasma, HPLC-MS/MS)", "format": "in vivo, human", "experimental": "The pharmacokinetic of (S,E)-methyl-7-(1-(2-(2-ethylbutylamino)-2-oxoethyl)-2-oxo-1,2-dihydro-pyridin-3-ylamino)-6-(1-methyl-1H-imidazole-5-carboxamido)-7-oxohept-2-enoate (compound of formula (I)) was investigated in healthy volunteers. Cohorts of 18 subjects each were treated with an oral daily dose of 10, 20, 50 and 100 mg compound of formula (I), respectively over a time period of 7 days.\nThe determination of said compound in blood plasma was performed by means of a previously validated HPLC-MS/MS method."}, "[2]": {"test": "Comparison of Cmax of the formulation (human) with the plain compound (animals), doses as human-equivalent-dose", "format": "in vivo, human; monkeys, pigs, rabbits, rats and mice", "conditions": "formulation in human vs drug as suspension in animals", "experimental": "Due to regulatory and ethical reasons pharmacokinetic data with the plain compound were only generated in animals but not in human subjects. The pharmacokinetic data of the plain compound were derived from several studies in monkeys, pigs, rabbits, rats and mice. In all studies the compound was administered orally after suspension in 0.5% (w/v) methylcellulose in water, pH 5±0.5. Blood samples were taken at various time points within 24 h after drug administration and quantified by means of a previously validated HPLC-MS/MS method. […] In order to compile the data from different species, doses were converted into human-equivalent-dose (HED) taking into account differences in the body surface area between species. The widely accepted species-specific conversion factors defined in the FDA guideline “Estimating the Maximum Safe Starting Dose in Initial Clinical Trials for Therapeutics in Adult Healthy Volunteers” (Issue date 2005) were used."}, "[3]": {"test": "Saturation solubility in the pH-range 1 to 6.8 (HPLC/UV)", "format": "physicochemical"}, "[4]": {"test": "Simulation of the gastrointestinal tract, transfer model (donor medium to FaSSIF acceptor medium)", "format": "physicochemical", "experimental": "The solubility of the dose as well as the dissolution velocity under physiological conditions are critical parameters for the oral availability at the target site.\nThe transfer model consists of a vessel with 125 ml donor medium and a vessel with 500 m acceptor medium. The donor medium is transferred by means of pump (Piston pump Sotax CP7) in the acceptor medium so that 625 ml liquid is present in the acceptor vessel at the end of the experiment. The transfer rate amounts 10 ml/min. The donor medium is an artificial gastric juice in a sober state, and contains 34.2 mM sodium chloride (NaCl) in 0.1 hydrogen chloride (HCl). The acceptor medium consists of artificial […] in a sober state (FaSSIF) and contains 3 mM sodium taurocholate, and […] lecithine in phosphate buffer with a pH-value of 6.5. The temperature of the acceptor medium is adjusted to 37.5° C.±0.5° C. For the simulation of the gastrointestine motility, the acceptor medium is stirred continuously with a stirring paddle (50 rpm). A calibrated stirring paddle apparatus 2 according to the conditions of the USP (Sotax AT7 Smart) as an acceptor vessel is used. In FIG. 5, a scheme of the apparatus is illustrated.\nThe capsule was added to the donor medium."}, "[5]": {"system": "adult patients with Celiac Disease (CeD)", "test": "6-week treatment of adult Celiac Disease patients challenged with 3 g daily gluten, placebo-controlled", "format": "in vivo, human", "experimental": "Patients, who were in clinical and histological remission at start of the study were challenged with 3 grams daily gluten intake and randomized to receive placebo or one of 3 doses of the compound of formula (I), i.e. 10 mg, 50 mg or 100 mg.\nEach morning after at least 6 hours of fasting, patients took the study drug orally, followed by one biscuit containing 3 g of gluten 30 minutes later, before breakfast. Throughout the 6-week study, patients were required to continue their strict gluten free diet.\nThe primary endpoint of the study was, whether the compound of formula (I) could prevent gluten-induced change in intestinal mucosal morphology. Before start (baseline) and after end of the 6 weeks of treatment endoscopies were conducted by an experienced gastroenterologist. Four endoscopy forceps biopsy samples with one biopsy bite per pass were taken from the second and third part of the duodenum and preserved in a PAXgene fixative containers. Tissue slides of the biopsies were scanned as whole-slide images and the villous height (VH) and crypt depth (CrD) in the mucosal samples were measured. In addition, the density of CD3+ intra-epithelial lymphocytes (IELs), an indicator of inflammation, was counted. Symptoms of CeD the patients were recorded by patient-reported outcomes (PROs) and measured by the Celiac Symptom Index (CSI) (Ref1) and Celiac Disease Questionnaire (CDQ) (Ref2)."}, "[6]": {"test": "Side effects in humans at doses of up to 500 mg", "format": "in vivo", "experimental": "Moreover, side effects related to potential off-target actions were not observed in humans even at doses of up to 500 mg. As aforementioned, this is particularly surprising due to the fact that TG2 is ubiquitously expressed in almost all cell types and cell compartments, it is present on the cell surface and gets secreted to the extracellular matrix, and is present in various organs, and thus it could be envisioned that off-target effects would be most likely."}, "[7]": {"target": "T2, small intestinal tissue transglutaminase (TG2) (Mus musculus, UniProt P21981)", "T2 construct": "from tissue; host or cells: small intestine (jejunum) and colon of the treated animals", "T2 sequence (P21981 1-686)": "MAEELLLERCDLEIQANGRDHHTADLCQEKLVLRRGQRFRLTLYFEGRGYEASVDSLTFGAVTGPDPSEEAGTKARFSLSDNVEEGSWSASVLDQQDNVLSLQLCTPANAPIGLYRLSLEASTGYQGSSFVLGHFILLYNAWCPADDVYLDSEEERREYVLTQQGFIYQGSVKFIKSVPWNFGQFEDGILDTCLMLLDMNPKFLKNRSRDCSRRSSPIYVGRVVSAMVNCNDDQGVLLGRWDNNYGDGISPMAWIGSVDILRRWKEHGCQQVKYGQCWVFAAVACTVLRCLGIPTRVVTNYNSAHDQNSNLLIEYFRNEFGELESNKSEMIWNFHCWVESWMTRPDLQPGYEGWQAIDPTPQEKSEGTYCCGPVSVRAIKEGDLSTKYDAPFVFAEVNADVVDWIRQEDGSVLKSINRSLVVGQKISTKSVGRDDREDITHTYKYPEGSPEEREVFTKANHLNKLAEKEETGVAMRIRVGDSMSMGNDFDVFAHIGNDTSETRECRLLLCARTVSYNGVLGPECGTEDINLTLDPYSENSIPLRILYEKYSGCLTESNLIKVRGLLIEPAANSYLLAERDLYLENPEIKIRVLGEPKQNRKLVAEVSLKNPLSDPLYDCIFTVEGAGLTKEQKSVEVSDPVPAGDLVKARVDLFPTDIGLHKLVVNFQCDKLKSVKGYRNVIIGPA", "conditions": "plain, unformulated compound, cited from earlier work"}}, "note": "Read-outs that look alike come from different tables or passages of the source."}
{"smiles": "CCC(CC)CNC(=O)Cn1cccc(NC(=O)[C@H](CC/C=C/C(=O)OC)NC(=O)c2cncn2C)c1=O", "note": "[(S,E)-methyl-7-(1-(2-(2-ethylbutylamino)-2-oxoethyl)-2-oxo-1,2-dihydro-pyridin-3-ylamino)-6-(1-methyl-1H-imidazole-5-carboxamido)-7-oxohept-2-enoate]", "values": [{"measurement": "dose sufficient to achieve a therapeutic effective drug concentration", "setting": "TG2; human", "value": "20 to 50", "unit": "mg"}]}
{"smiles": "CCC(CC)CNC(=O)Cn1cccc(NC(=O)[C@H](CC/C=C/C(=O)OC)NC(=O)c2cncn2C)c1=O", "note": "[compound of formula (I), (S,E)-methyl-7-(1-(2-(2-ethylbutylamino)-2-oxoethyl)-2-oxo-1,2-dihydro-pyridin-3-ylamino)-6-(1-methyl-1H-imidazole-5-carboxamido)-7-oxohept-2-enoate]", "values": [{"measurement": "increase of drug concentration with dose", "setting": "[1]; dose range 10-100 mg, formulation", "value": "dose-proportionally"}, {"measurement": "Tmax", "setting": "[1]; human, plasma, oral daily dose 10, 20, 50, 100 mg for 7 days, hard gelatine capsule of example 2, read-out: tmax (maximum of plasma drug level after administration)", "value": "~1", "unit": "h"}, {"measurement": "drug level in vivo compared with in vitro TG2 inhibition", "setting": "TG2; dose of 10 mg", "value": "half maximal inhibition (IC50) of TG2 is already achieved"}, {"measurement": "drug level in vivo compared with in vitro TG2 inhibition", "setting": "TG2; dose of 50 mg of the new developed formulation", "value": "exceeding the IC90"}, {"measurement": "drug concentration normalized to body weight versus animal studies with suspension", "setting": "[2]", "value": "remarkably higher"}, {"measurement": "saturation solubility at pH=6.8 (duodenum) compared with pH~1", "setting": "[3]", "value": "much lower"}, {"measurement": "solubility", "setting": "[4]; FaSSIF (acceptor medium), FaSSIF, phosphate buffer pH 6.5, read-out: solubility in the acceptor medium", "value": 200, "unit": "µg/mL"}, {"measurement": "solubility", "setting": "[4]; FaSSIF medium, pH 6.5, fassif, thermodynamic from solid, pH-value of 6.5, read-out: saturation solubility of the pure drug", "value": 180, "unit": "µg/mL"}, {"measurement": "solubility", "setting": "[4]; artificial gastric juice, sober state (donor medium), simulated gastric fluid, 34.2 mM NaCl in 0.1 HCl, read-out: solubility in the donor medium", "value": 4400, "unit": "µg/mL"}, {"measurement": "effect of gluten on VH:CrD (mucosal deterioration)", "setting": "[5]; 10 mg dose, baseline to week 6", "value": "prevented mucosal deterioration to a lesser degree"}, {"measurement": "CDQ scores, change from baseline to week 6", "setting": "[5]; 10 mg, 50 mg and 100 mg groups, increase = better quality of life", "value": "increased"}, {"measurement": "effect of gluten on VH:CrD (villus height-to-crypt depth ratio)", "setting": "[5]; daily dose 50 mg, baseline to week 6", "value": "almost completely prevented the deleterious effect of gluten on VH:CrD"}, {"measurement": "effect of gluten on VH:CrD (villus height-to-crypt depth ratio)", "setting": "[5]; daily dose 100 mg, baseline to week 6", "value": "almost completely prevented the deleterious effect of gluten on VH:CrD"}, {"measurement": "gluten-induced symptoms and quality of life", "setting": "[5]; hard gelatine capsule formulation of example 2", "value": "significantly improved"}, {"measurement": "safety profile (frequency and severity of adverse events)", "setting": "[5]; hard gelatine capsule formulation of example 2, 6 weeks", "value": "comparable to placebo"}, {"measurement": "intestinal mucosal injury", "setting": "[5]; hard gelatine capsule formulation of example 2, moderate dose of daily gluten", "value": "effectively prevented intestinal mucosal injury"}, {"measurement": "side effects related to potential off-target actions", "setting": "[6]", "value": "not observed"}, {"measurement": "activity of intestinal TG2", "setting": "[7]; TG2 activated by poly(I:C)", "value": "reduced the activity of intestinal TG2 to normal levels"}, {"measurement": "intestinal inflammation", "setting": "[7]", "value": "subdued intestinal inflammation"}, {"measurement": "safety of administration", "setting": "[7]", "value": "safe"}]}
